Results as given in paper PMC11372264, “^61Cu-PSMA–Targeted PET for Prostate Cancer: From Radiotracer Development to First-in-Human Imaging” (Journal of Nuclear Medicine, 2024).

Assays:
[1] = Lipophilicity: distribution coefficient in 1:1 1-octanol/phosphate-buffered saline at pH 7.4; type: physicochemical
Procedure: (§1) The lipophilicity of [^61Cu]Cu-DOTAGA-PSMA-I&T and [^61Cu]Cu-NODAGA-PSMA-I&T was assessed by determining the distribution coefficient in a 1:1 mixture of 1-octanol–to–phosphate-buffered saline at pH 7.4, in comparison with all reference radiotracers. Inhibitory concentration of 50% (IC50) was assessed by competition binding on lymph node carcinoma of the prostate (LNCaP) using ((S)-1-carboxy-5-(4-(-^125I-iodo-benzamido)pentyl)carbamoyl)-L-glutamic acid as the reference radioligand. Cellular uptake and distribution were assessed in LNCaP cells at 5, 15, 30, 60, and 120 min after exposure to the radioligand at 37°C, either alone or in the presence of 10 µM 2-(phosphonomethyl)pentanedioic acid to distinguish between specific and nonspecific uptake.

LNCaP xenografts = assay: Biodistribution in LNCaP xenografts; type: in vivo, mice
Procedure: All animal experiments were conducted in accordance with Swiss animal welfare laws and regulations under license number 30515 granted by the Veterinary Office, Department of Health, Canton Basel-Stadt, Switzerland. Male athymic nude-Foxn1^nu/Foxn1^+ mice (Envigo), 4–6 wk old, were inoculated subcutaneously on the shoulder with 10^7 LNCaP cells, freshly suspended in a 1:1 ratio of sterile minimum essential medium with basal medium Eagle and Matrigel. The tumors were allowed to grow to a volume of approximately 200 mm^3.
The biodistribution of [^61Cu]Cu-DOTAGA-PSMA-I&T and [^61Cu]Cu-NODAGA-PSMA-I&T (100 µL/200 pmol/2–3 MBq) was compared with that of [^68Ga]Ga-DOTAGA-PSMA-I&T, [^68Ga]Ga-NODAGA-PSMA-I&T, and [^68Ga]Ga-PSMA-11 (100 µL/200 pmol/3–5 MBq), as well as [^18F]PSMA-1007 (100 µL/70 pmol/15 MBq). This comparison was conducted at 1 h after injection for all radiotracers and at 4 h after injection for the ^61Cu-labeled tracers and [^18F]PSMA-1007. The specificity of the ^61Cu-labeled tracers was assessed at 1 h after injection by blocking studies with 2-(phosphonomethyl)pentanedioic acid (100 µL/1.3 µmol) being injected 3–5 min before the injection of the radiotracer.

LNCaP cells = assay: Cellular uptake and distribution (surface-bound, internalized) in LNCaP cells; type: cell-based; conditions: 1 h, 37°C, specific uptake
Procedure: as §1
(§2) FIGURE 1. In vitro assessment in LNCaP cells after 1 h at 37°C. (A) Competition binding activity curves of ^natCu-DOTAGA-PSMA-I&T, ^natCu-NODAGA-PSMA-I&T, and ^natGa-PSMA-11 on LNCaP cells after 1 h of incubation on ice, using ((S)-1-carboxy-5-(4-(-^125I-iodo-benzamido)pentyl)carbamoyl)-L-glutamic acid ([^125I-BA]KuE) at concentration of 0.2 nM as reference radioligand. (B) Cellular uptake (surface-bound + internalized). Cell surface–bound and internalized fractions are indicated. Results represent mean ± SD of specific (total − nonspecific) uptake from minimum of 2 separate experiments, each in triplicate.

PSMA = biological target: T1, PSMA (Homo sapiens, UniProt Q04609); assay: Competition binding on LNCaP cells using [^125I-BA]KuE as reference radioligand; conditions: [^125I-BA]KuE 0.2 nM, 1 h on ice, determined with natCu/natGa complexes
T1 construct: endogenous in cells; host or cells: LNCaP cells
Procedure: as §1, §2

T1 sequence (Q04609 whole entry): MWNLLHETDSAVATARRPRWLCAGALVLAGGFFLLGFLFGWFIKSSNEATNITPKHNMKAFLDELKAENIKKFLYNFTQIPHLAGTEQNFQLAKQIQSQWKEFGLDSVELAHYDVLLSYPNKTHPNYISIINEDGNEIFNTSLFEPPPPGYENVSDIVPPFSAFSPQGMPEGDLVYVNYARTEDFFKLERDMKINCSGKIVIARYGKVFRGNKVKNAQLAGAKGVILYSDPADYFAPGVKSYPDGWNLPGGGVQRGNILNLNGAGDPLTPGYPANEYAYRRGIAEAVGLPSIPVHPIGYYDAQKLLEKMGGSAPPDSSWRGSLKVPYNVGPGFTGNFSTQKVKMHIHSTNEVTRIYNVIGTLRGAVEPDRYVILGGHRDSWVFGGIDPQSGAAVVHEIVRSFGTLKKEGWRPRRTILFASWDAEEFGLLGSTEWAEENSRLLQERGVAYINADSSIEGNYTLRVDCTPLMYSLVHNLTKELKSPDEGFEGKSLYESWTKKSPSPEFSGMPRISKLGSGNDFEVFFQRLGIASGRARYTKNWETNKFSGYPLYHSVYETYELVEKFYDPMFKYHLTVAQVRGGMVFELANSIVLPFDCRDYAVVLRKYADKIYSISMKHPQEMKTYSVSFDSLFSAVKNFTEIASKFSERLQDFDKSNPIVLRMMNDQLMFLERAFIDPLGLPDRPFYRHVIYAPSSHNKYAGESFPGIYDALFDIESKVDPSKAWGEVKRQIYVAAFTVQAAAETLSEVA

O=C(O)CC[C@H](NC(=O)N[C@@H](CCCCNC(=O)[C@H](Cc1ccc2ccccc2c1)NC(=O)c1ccc(CNC(=O)[C@H](CCC(=O)O)NC(=O)[C@H](CCC(=O)O)NC(=O)c2ccc([18F])nc2)cc1)C(=O)O)C(=O)O [[^18F]PSMA-1007, reference compound]
logDpH7.4 [1]: −3.02 ± 0.11
Biodistribution, Adrenals (LNCaP xenografts; 1 h after injection): 7.18 ± 2.20 %IA/g
Biodistribution, Blood (LNCaP xenografts; 1 h after injection): 0.41 ± 0.11 %IA/g
Biodistribution, Femur (LNCaP xenografts; 1 h after injection): 0.94 ± 0.13 %IA/g
Biodistribution, Heart (LNCaP xenografts; 1 h after injection): 1.25 ± 0.29 %IA/g
Biodistribution, Intestine (LNCaP xenografts; 1 h after injection): 1.04 ± 0.33 %IA/g
Biodistribution, Kidneys (LNCaP xenografts; 1 h after injection): 100 ± 17 %IA/g
Biodistribution, Liver (LNCaP xenografts; 1 h after injection): 0.93 ± 0.26 %IA/g
Biodistribution, Lung (LNCaP xenografts; 1 h after injection): 2.08 ± 0.24 %IA/g
Biodistribution, Muscles (LNCaP xenografts; 1 h after injection): 0.53 ± 0.09 %IA/g
Biodistribution, Pancreas (LNCaP xenografts; 1 h after injection): 1.32 ± 0.58 %IA/g
Biodistribution, Salivary glands (LNCaP xenografts; 1 h after injection): 2.54 ± 0.72 %IA/g
Biodistribution, Spleen (LNCaP xenografts; 1 h after injection): 11.0 ± 1.1 %IA/g
Biodistribution, Stomach (LNCaP xenografts; 1 h after injection): 0.75 ± 0.15 %IA/g
Biodistribution, Tumor (tumor uptake) (LNCaP xenografts; 1 h after injection): 9.70 ± 2.57 %IA/g
Tumor-to-Adrenals ratio (LNCaP xenografts; 1 h after injection): 1.45 ± 0.55
Tumor-to-Blood ratio (LNCaP xenografts; 1 h after injection): 25.8 ± 11.5
Tumor-to-Intestine ratio (LNCaP xenografts; 1 h after injection): 10.3 ± 4.8
Tumor-to-Kidneys ratio (LNCaP xenografts; 1 h after injection): 0.10 ± 0.03
Tumor-to-Liver ratio (LNCaP xenografts; 1 h after injection): 11.3 ± 4.5
Tumor-to-Muscles ratio (LNCaP xenografts; 1 h after injection): 19.2 ± 6.5
Tumor-to-Salivary glands ratio (LNCaP xenografts; 1 h after injection): 4.12 ± 1.60
Tumor-to-Spleen ratio (LNCaP xenografts; 1 h after injection): 0.89 ± 0.20
Biodistribution, Adrenals (LNCaP xenografts; 4 h after injection): 8.03 ± 2.66 %IA/g
Biodistribution, Blood (LNCaP xenografts; 4 h after injection): 0.17 ± 0.04 %IA/g
Biodistribution, Femur (LNCaP xenografts; 4 h after injection): 0.62 ± 0.11 %IA/g
Biodistribution, Heart (LNCaP xenografts; 4 h after injection): 0.53 ± 0.23 %IA/g
Biodistribution, Intestine (LNCaP xenografts; 4 h after injection): 0.43 ± 0.22 %IA/g
Biodistribution, Kidneys (LNCaP xenografts; 4 h after injection): 132 ± 9 %IA/g
Biodistribution, Liver (LNCaP xenografts; 4 h after injection): 0.32 ± 0.16 %IA/g
Biodistribution, Lung (LNCaP xenografts; 4 h after injection): 1.61 ± 0.58 %IA/g
Biodistribution, Muscles (LNCaP xenografts; 4 h after injection): 0.27 ± 0.11 %IA/g
Biodistribution, Pancreas (LNCaP xenografts; 4 h after injection): 0.80 ± 0.32 %IA/g
Biodistribution, Salivary glands (LNCaP xenografts; 4 h after injection): 1.62 ± 0.43 %IA/g
Biodistribution, Spleen (LNCaP xenografts; 4 h after injection): 8.33 ± 2.11 %IA/g
Biodistribution, Stomach (LNCaP xenografts; 4 h after injection): 0.47 ± 0.16 %IA/g
Biodistribution, Tumor (tumor uptake) (LNCaP xenografts; 4 h after injection): 6.28 ± 2.19 %IA/g
Tumor-to-Adrenals ratio (LNCaP xenografts; 4 h after injection): 0.78 ± 0.11
Tumor-to-Blood ratio (LNCaP xenografts; 4 h after injection): 42.7 ± 16.4
Tumor-to-Intestine ratio (LNCaP xenografts; 4 h after injection): 12.4 ± 4.4
Tumor-to-Kidneys ratio (LNCaP xenografts; 4 h after injection): 0.04 ± 0.01
Tumor-to-Liver ratio (LNCaP xenografts; 4 h after injection): 18.4 ± 8.5
Tumor-to-Muscles ratio (LNCaP xenografts; 4 h after injection): 20.1 ± 2.5
Tumor-to-Salivary glands ratio (LNCaP xenografts; 4 h after injection): 3.63 ± 0.40
Tumor-to-Spleen ratio (LNCaP xenografts; 4 h after injection): 0.71 ± 0.12

O=C([O-])CN1CCN(CC(=O)[O-])CCN(C(CCC(=O)N[C@H](Cc2ccc(O)c(I)c2)C(=O)N[C@H](Cc2ccccc2)C(=O)N[C@H](CCCCNC(=O)CCCCCCC(=O)NCCCC[C@H](NC(=O)N[C@@H](CCC(=O)O)C(=O)O)C(=O)O)C(=O)O)C(=O)O)CCN(CC(=O)[O-])CC1.[68Ga+3] (some centres unmarked) [[^68Ga]Ga-DOTAGA-PSMA-I&T, reference compound]
Cellular uptake (surface-bound + internalized) (LNCaP cells): 20.6% ± 2.3%

O=C([O-])CN1CCN(CC(=O)[O-])CCN(C(CCC(=O)N[C@H](Cc2ccc(O)c(I)c2)C(=O)N[C@H](Cc2ccccc2)C(=O)N[C@H](CCCCNC(=O)CCCCCCC(=O)NCCCC[C@H](NC(=O)N[C@@H](CCC(=O)O)C(=O)O)C(=O)O)C(=O)O)C(=O)[O-])CC1.[68Ga+3] (some centres unmarked) [[^68Ga]Ga-NODAGA-PSMA-I&T]
Cellular uptake (surface-bound + internalized) (LNCaP cells): 18.1% ± 2.6%

O=C([O-])CN(CCN(CC(=O)[O-])Cc1cc(CCC(=O)NCCCCCC(=O)NCCCC[C@H](NC(=O)N[C@@H](CCC(=O)O)C(=O)O)C(=O)O)ccc1[O-])Cc1cc(CCC(=O)O)ccc1[O-].[68Ga+3].[OH3+] [[^68Ga]Ga-PSMA-11, reference compound]
logDpH7.4 [1]: −3.89 ± 0.19
Cellular uptake (surface-bound + internalized) (LNCaP cells): 25.8% ± 0.5%
Biodistribution, Adrenals (LNCaP xenografts; 1 h after injection): 19.2 ± 5.3 %IA/g
Biodistribution, Blood (LNCaP xenografts; 1 h after injection): 0.25 ± 0.07 %IA/g
Biodistribution, Femur (LNCaP xenografts; 1 h after injection): 3.69 ± 1.86 %IA/g
Biodistribution, Heart (LNCaP xenografts; 1 h after injection): 0.32 ± 0.10 %IA/g
Biodistribution, Intestine (LNCaP xenografts; 1 h after injection): 1.52 ± 0.60 %IA/g
Biodistribution, Kidneys (LNCaP xenografts; 1 h after injection): 159 ± 31 %IA/g
Biodistribution, Liver (LNCaP xenografts; 1 h after injection): 0.54 ± 0.27 %IA/g
Biodistribution, Lung (LNCaP xenografts; 1 h after injection): 1.43 ± 0.43 %IA/g
Biodistribution, Muscles (LNCaP xenografts; 1 h after injection): 0.90 ± 0.36 %IA/g
Biodistribution, Pancreas (LNCaP xenografts; 1 h after injection): 0.70 ± 0.12 %IA/g
Biodistribution, Salivary glands (LNCaP xenografts; 1 h after injection): 1.56 ± 0.31 %IA/g
Biodistribution, Spleen (LNCaP xenografts; 1 h after injection): 6.38 ± 1.37 %IA/g
Biodistribution, Stomach (LNCaP xenografts; 1 h after injection): 0.69 ± 0.11 %IA/g
Biodistribution, Tumor (tumor uptake) (LNCaP xenografts; 1 h after injection): 10.2 ± 1.5 %IA/g
Tumor-to-Adrenals ratio (LNCaP xenografts; 1 h after injection): 0.58 ± 0.26
Tumor-to-Blood ratio (LNCaP xenografts; 1 h after injection): 45.3 ± 19.7
Tumor-to-Intestine ratio (LNCaP xenografts; 1 h after injection): 8.66 ± 6.90
Tumor-to-Kidneys ratio (LNCaP xenografts; 1 h after injection): 0.07 ± 0.02
Tumor-to-Liver ratio (LNCaP xenografts; 1 h after injection): 23.5 ± 12.5
Tumor-to-Muscles ratio (LNCaP xenografts; 1 h after injection): 13.6 ± 8.3
Tumor-to-Salivary glands ratio (LNCaP xenografts; 1 h after injection): 6.72 ± 1.51
Tumor-to-Spleen ratio (LNCaP xenografts; 1 h after injection): 1.69 ± 0.58

O=C([O-])CN1CCN(CC(=O)O)CCN(CC(=O)[O-])CCN(C(CCC(=O)N[C@H](Cc2ccc(O)c(I)c2)C(=O)N[C@H](Cc2ccccc2)C(=O)N[C@H](CCCCNC(=O)CCCCCCC(=O)NCCCC[C@H](NC(=O)N[C@@H](CCC(=O)O)C(=O)O)C(=O)O)C(=O)O)C(=O)O)CC1.[Cu+2] (some centres unmarked) [^natCu-DOTAGA-PSMA-I&T]
IC50 (PSMA): 11.2 ± 2.3 nM

O=C([O-])CN1CCN(CC(=O)[O-])CCN(C(CCC(=O)N[C@H](Cc2ccc(O)c(I)c2)C(=O)N[C@H](Cc2ccccc2)C(=O)N[C@H](CCCCNC(=O)CCCCCCC(=O)NCCCC[C@H](NC(=O)N[C@@H](CCC(=O)O)C(=O)O)C(=O)O)C(=O)O)C(=O)O)CC1.[Cu+2] (some centres unmarked) [^natCu-NODAGA-PSMA-I&T]
IC50 (PSMA): 9.3 ± 1.8 nM

O=C([O-])CN(CCN(CC(=O)[O-])Cc1cc(CCC(=O)NCCCCCC(=O)NCCCC[C@H](NC(=O)N[C@@H](CCC(=O)O)C(=O)O)C(=O)O)ccc1O)Cc1cc(CCC(=O)O)ccc1[O-].[Ga+3] [^natGa-PSMA-11, reference compound]
IC50 (PSMA): 2.4 ± 0.4 nM
